Experimental data taken from patent US20250268884A1, “Deuterated Domperidone for Treating Gastroparesis” (CinDome Pharma, Inc., priority 2022, published 2025).

Tested on: adults with idiopathic or diabetic gastroparesis
Experiment: Safety: adverse events, laboratory values, vital signs, Phase 2a
Conditions: for Any Aes, % of subjects / Any Aes, n subjects / Any TEAEs by maximum severity: Mild, % of subjects / Any TEAEs by maximum severity: Mild, n subjects / Any TEAEs by maximum severity: Moderate, % of subjects / Any TEAEs by maximum severity: Moderate, n subjects / Any TEAEs by maximum severity: Severe, % of subjects / Any TEAEs by maximum severity: Severe, n subjects / Any TEAEs leading to death, % of subjects / Any TEAEs leading to death, n subjects / Any TEAEs leading to discontinuation, % of subjects / Any TEAEs leading to discontinuation, n subjects / Any TEAEs, % of subjects / Any TEAEs, e (number of events) / Any TEAEs, n subjects / Any serious TEAEs, % of subjects / Any serious TEAEs, n subjects / Any study drug-related TEAEs by maximum severity: Mild, % of subjects / Any study drug-related TEAEs by maximum severity: Mild, n subjects / Any study drug-related TEAEs by maximum severity: Moderate, % of subjects / Any study drug-related TEAEs by maximum severity: Moderate, n subjects / Any study drug-related TEAEs by maximum severity: Severe, % of subjects / Any study drug-related TEAEs by maximum severity: Severe, n subjects / Any study drug-related TEAEs leading to discontinuation, % of subjects / Any study drug-related TEAEs leading to discontinuation, n subjects / Any study drug-related TEAEs, % of subjects / Any study drug-related TEAEs, n subjects / Any study drug-related serious TEAEs, % of subjects / Any study drug-related serious TEAEs, n subjects / subjects who experienced a TEAE: Safety Population
Method: Safety was evaluated through assessments of Aes, vital signs, physical examinations, clinical laboratory evaluations (including prolactin), and ECG findings. Additionally, a single, optional PGx blood sample may have been collected at any time during the subject's participation in the study.
Safety variables included Aes, clinical laboratory results (including prolactin), vital signs, ECGs, and physical examination findings.

**Q.** Which results are given for `[2H]c1c([2H])c([2H])c2c([nH]c(=O)n2CCCN2CCC(n3c(=O)[nH]c4cc(Cl)ccc43)CC2)c1[2H]` [Deudomperidone, 1-{3-[4-(5-chloro-2-oxo-2,3-dihydro-1H-1,3-benzodiazol-1-yl)piperidin-1yl]propyl}-2,3-dihydro(4,5,6,7-D4)-1H-1,3-benzodiazol-2-one]?
**A.** TEAE Nausea, % (10 mg BID (N = 30)): (3.3) %; TEAE Nervous system disorders, % (10 mg BID (N = 30)): (0.0) %; TEAE Palpitations, % (10 mg BID (N = 30)): (3.3) %; TEAE Sinusitis, % (10 mg BID (N = 30)): (0.0) %; TEAE Tinnitus, % (10 mg BID (N = 30)): (3.3) %; TEAE Vomiting, % (10 mg BID (N = 30)): (3.3) %; Any Aes, % of subjects (10 mg BID (N = 30)): (23.3) %; Any Aes, n subjects (10 mg BID (N = 30)): 7; Any TEAEs by maximum severity: Mild, % of subjects (10 mg BID (N = 30)): (10.0) %; Any TEAEs by maximum severity: Mild, n subjects (10 mg BID (N = 30)): 3; Any TEAEs by maximum severity: Moderate, % of subjects (10 mg BID (N = 30)): (6.7) %; Any TEAEs by maximum severity: Moderate, n subjects (10 mg BID (N = 30)): 2; Any TEAEs by maximum severity: Severe, % of subjects (10 mg BID (N = 30)): (3.3) %; Any TEAEs by maximum severity: Severe, n subjects (10 mg BID (N = 30)): 1; Any TEAEs leading to death, % of subjects (10 mg BID (N = 30)): (0.0) %; Any TEAEs leading to death, n subjects (10 mg BID (N = 30)): 0; Any TEAEs leading to discontinuation, % of subjects (10 mg BID (N = 30)): (0.0) %; Any TEAEs leading to discontinuation, n subjects (10 mg BID (N = 30)): 0; Any TEAEs, % of subjects (10 mg BID (N = 30)): 20.0%; Any TEAEs, e (number of events) (10 mg BID (N = 30)): 11; Any TEAEs, n subjects (10 mg BID (N = 30)): 6; Any serious TEAEs, % of subjects (10 mg BID (N = 30)): (0.0) %; Any serious TEAEs, n subjects (10 mg BID (N = 30)): 0; Any study drug-related TEAEs by maximum severity: Mild, % of subjects (10 mg BID (N = 30)): (13.3) %; Any study drug-related TEAEs by maximum severity: Mild, n subjects (10 mg BID (N = 30)): 4; Any study drug-related TEAEs by maximum severity: Moderate, % of subjects (10 mg BID (N = 30)): (0.0) %; Any study drug-related TEAEs by maximum severity: Moderate, n subjects (10 mg BID (N = 30)): 0; Any study drug-related TEAEs by maximum severity: Severe, % of subjects (10 mg BID (N = 30)): (0.0) %; Any study drug-related TEAEs by maximum severity: Severe, n subjects (10 mg BID (N = 30)): 0; Any study drug-related TEAEs leading to discontinuation, % of subjects (10 mg BID (N = 30)): (0.0) %; Any study drug-related TEAEs leading to discontinuation, n subjects (10 mg BID (N = 30)): 0; Any study drug-related TEAEs, % of subjects (10 mg BID (N = 30)): (13.3) %; Any study drug-related TEAEs, n subjects (10 mg BID (N = 30)): 4; Any study drug-related serious TEAEs, % of subjects (10 mg BID (N = 30)): (0.0) %; Any study drug-related serious TEAEs, n subjects (10 mg BID (N = 30)): 0; subjects who experienced a TEAE (10 mg BID): 6 (20.0%) subjects (%); TEAE diarrhoea (20 mg QD): 1 (6.7%) subjects (%); TEAE electrocardiogram QT prolonged (20 mg QD): 2 (13.3%) subjects (%); TEAE hypoglycaemia (20 mg QD): 1 (6.7%) subjects (%); TEAEs reported (20 mg QD): 8 TEAEs; other TEAEs, each: constipation, dyspepsia, sinusitis, headache (20 mg QD): 1 subject each; other study drug-related TEAE: headache (20 mg QD): 1 subject each; study drug-related TEAE diarrhoea (20 mg QD): 1 (6.7%) subjects (%); study drug-related TEAE electrocardiogram QT prolonged (20 mg QD): 2 (13.3%) subjects (%); study drug-related TEAEs reported (20 mg QD): 4 TEAEs; subjects with study drug-related TEAEs (20 mg QD): 4 (26.7) subjects (%); Study drug-related TEAE Abdominal pain lower, % (20 mg QD (N = 15)): (0.0) %; Study drug-related TEAE Blood creatine phosphokinase increased, % (20 mg QD (N = 15)): (0.0) %; Study drug-related TEAE Cardiac disorders, % (20 mg QD (N = 15)): (0.0) %; Study drug-related TEAE Diarrhoea, % (20 mg QD (N = 15)): (6.7) %; Study drug-related TEAE Ear and labyrinth disorders, % (20 mg QD (N = 15)): (0.0) %; Study drug-related TEAE Electrocardiogram QT prolonged, % (20 mg QD (N = 15)): (13.3) %; Study drug-related TEAE Gastrointestinal disorders, % (20 mg QD (N = 15)): (6.7) %; Study drug-related TEAE Headache, % (20 mg QD (N = 15)): (6.7) %; Study drug-related TEAE Investigations, % (20 mg QD (N = 15)): (13.3) %; Study drug-related TEAE Nausea, % (20 mg QD (N = 15)): (0.0) %; Study drug-related TEAE Nervous system disorders, % (20 mg QD (N = 15)): (6.7) %; Study drug-related TEAE Palpitations, % (20 mg QD (N = 15)): (0.0) %; Study drug-related TEAE Tinnitus, % (20 mg QD (N = 15)): (0.0) %; Subjects with any TEAEs, % (20 mg QD (N = 15)): 40.0%; Subjects with any TEAEs, e (events) (20 mg QD (N = 15)): 8; Subjects with any study drug-related TEAE, % (20 mg QD (N = 15)): 26.7%; Subjects with any study drug-related TEAE, e (events) (20 mg QD (N = 15)): 4; TEAE Abdominal pain lower, % (20 mg QD (N = 15)): (0.0) %; TEAE Arthralgia, % (20 mg QD (N = 15)): (0.0) %; TEAE Back pain, % (20 mg QD (N = 15)): (0.0) %; TEAE Blood creatine phosphokinase increased, % (20 mg QD (N = 15)): (0.0) %; TEAE Cardiac disorders, % (20 mg QD (N = 15)): (0.0) %; TEAE Constipation, % (20 mg QD (N = 15)): (6.7) %; TEAE Decreased appetite, % (20 mg QD (N = 15)): (0.0) %; TEAE Diarrhoea, % (20 mg QD (N = 15)): (6.7) %; TEAE Dyspepsia, % (20 mg QD (N = 15)): (6.7) %; TEAE Ear and labyrinth disorders, % (20 mg QD (N = 15)): (0.0) %; TEAE Electrocardiogram QT prolonged, % (20 mg QD (N = 15)): (13.3) %; TEAE Gastrointestinal disorders, % (20 mg QD (N = 15)): (13.3) %; TEAE Headache, % (20 mg QD (N = 15)): (6.7) %; TEAE Hypoglycaemia, % (20 mg QD (N = 15)): (6.7) %; TEAE Infections and infestations, % (20 mg QD (N = 15)): (6.7) %; TEAE Investigations, % (20 mg QD (N = 15)): (13.3) %; TEAE Metabolism and nutrition disorders, % (20 mg QD (N = 15)): (6.7) %; TEAE Musculoskeletal and connective tissue disorders, % (20 mg QD (N = 15)): (0.0) %; TEAE Nausea, % (20 mg QD (N = 15)): (0.0) %; TEAE Nervous system disorders, % (20 mg QD (N = 15)): (6.7) %; TEAE Palpitations, % (20 mg QD (N = 15)): (0.0) %; TEAE Sinusitis, % (20 mg QD (N = 15)): (6.7) %; TEAE Tinnitus, % (20 mg QD (N = 15)): (0.0) %; TEAE Vomiting, % (20 mg QD (N = 15)): (0.0) %; Any Aes, % of subjects (20 mg QD (N = 15)): (40.0) %; Any Aes, n subjects (20 mg QD (N = 15)): 6; Any TEAEs by maximum severity: Mild, % of subjects (20 mg QD (N = 15)): (40.0) %; Any TEAEs by maximum severity: Mild, n subjects (20 mg QD (N = 15)): 6; Any TEAEs by maximum severity: Moderate, % of subjects (20 mg QD (N = 15)): (0.0) %; Any TEAEs by maximum severity: Moderate, n subjects (20 mg QD (N = 15)): 0; Any TEAEs by maximum severity: Severe, % of subjects (20 mg QD (N = 15)): (0.0) %; Any TEAEs by maximum severity: Severe, n subjects (20 mg QD (N = 15)): 0; Any TEAEs leading to death, % of subjects (20 mg QD (N = 15)): (0.0) %; Any TEAEs leading to death, n subjects (20 mg QD (N = 15)): 0; Any TEAEs leading to discontinuation, % of subjects (20 mg QD (N = 15)): (0.0) %; Any TEAEs leading to discontinuation, n subjects (20 mg QD (N = 15)): 0; Any TEAEs, % of subjects (20 mg QD (N = 15)): 40.0%; Any TEAEs, e (number of events) (20 mg QD (N = 15)): 8; Any TEAEs, n subjects (20 mg QD (N = 15)): 6; Any serious TEAEs, % of subjects (20 mg QD (N = 15)): (0.0) %; Any serious TEAEs, n subjects (20 mg QD (N = 15)): 0; Any study drug-related TEAEs by maximum severity: Mild, % of subjects (20 mg QD (N = 15)): (26.7) %; Any study drug-related TEAEs by maximum severity: Mild, n subjects (20 mg QD (N = 15)): 4; Any study drug-related TEAEs by maximum severity: Moderate, % of subjects (20 mg QD (N = 15)): (0.0) %; Any study drug-related TEAEs by maximum severity: Moderate, n subjects (20 mg QD (N = 15)): 0; Any study drug-related TEAEs by maximum severity: Severe, % of subjects (20 mg QD (N = 15)): (0.0) %; Any study drug-related TEAEs by maximum severity: Severe, n subjects (20 mg QD (N = 15)): 0; Any study drug-related TEAEs leading to discontinuation, % of subjects (20 mg QD (N = 15)): (0.0) %; Any study drug-related TEAEs leading to discontinuation, n subjects (20 mg QD (N = 15)): 0; Any study drug-related TEAEs, % of subjects (20 mg QD (N = 15)): (26.7) %; Any study drug-related TEAEs, n subjects (20 mg QD (N = 15)): 4; Any study drug-related serious TEAEs, % of subjects (20 mg QD (N = 15)): (0.0) %; Any study drug-related serious TEAEs, n subjects (20 mg QD (N = 15)): 0; subjects who experienced a TEAE (20 mg QD): 6 (40.0%) subjects (%); severity of study drug-related TEAEs (all dose groups): mild in severity; deaths, serious TEAEs, discontinuations due to a TEAE (all dose groups, 14 days): no deaths, serious TEAEs, or discontinuations due to a TEAE; changes from baseline in laboratory parameters (over treatment period): no meaningful changes from baseline
